From patent US20220401469A1, “PROCESS FOR PREPARATION OF BIOLOGICALLY ACTIVE COPOLYMER” (RECCE PHARMACEUTICALS LTD, priority 2020, published 2022)
Several values for one entry are separate records, joined by “and”; a condition that tells them apart may be missing. Equal values may be shown once. Marks after values point to notes of the source that are not given here.

Assays:
[1] = tested on: Influenza A virus (H1N1) Strain: A/NWS/33; experiment: Mouse influenza model (C57BL/6), body weights and lung viral titers; format: in vivo
[2] = tested on: E. coli [ATCC 25922]; experiment: Ascending Urinary Tract Infection Rat Model (kidneys, bladder); format: in vivo
[3] = tested on: Neisseria gonorrhoea (ATCC700825); conditions: in vivo, 50 mg/kg
[4] = tested on: Neisseria gonorrhoea (ATCC700825); experiment: Mouse vaginal infection model; conditions: mice; Meropenem IV bolus 50 mg/kg for seven days; p<0.05
[5] = tested on: Staphylococcus aureus [ATCC 43300]; experiment: Burn Wound Infection Model in rats; format: in vivo
[6] = Meropenem 30 mg/kg single dose i.v. bolus
[7] = Meropenem 30 mg/kg single dose i.v. bolus, individual animals
[8] = Meropenem single IV bolus 30 mg/kg, E1 50 and 500 mg/kg i.v. 24 h infusion

NC(=O)c1ncn([C@@H]2O[C@H](CO)[C@@H](O)[C@H]2O)n1 [Ribavirin]
body weights compared to vehicle control on day 4 ([1]; Ribavarin, E1 25, 50 and 100 mg/kg, CE3 100, 500 and 1000 mg/kg, p<0.05): significantly higher body weights | viral growth rate and viral load in the lungs compared to vehicle control ([1]; Ribavirin 66 mg/kg IP, E1 25-100 mg/kg, CE3 100-1000 mg/kg iv bid): significantly reduced the viral growth rate and viral load in the lungs | viral titres compared to vehicle control on day 4 ([1]; Ribavirin, E1 25, 50 and 100 mg/kg, CE3 100, 500 and 1000 mg/kg, p<0.05): significantly lower viral titres | Body weights Mean ([1]; mice infected with H1N1, Ribavarin 66 mg/kg i.p., Day 0): 23.92 g | Body weights Mean ([1]; mice infected with H1N1, Ribavarin 66 mg/kg i.p., Day 1): 23.50 g | Body weights Mean ([1]; mice infected with H1N1, Ribavarin 66 mg/kg i.p., Day 2): 24.22 g | Body weights Mean (g) ([1]; mice infected with H1N1, Ribavarin 66 mg/kg i.p., Day 4): 24.67* g | Body weights Mean ([1]; mice infected with H1N1, Ribavarin 66 mg/kg i.p., Day 6): 24.70 g | body weight through the study ([1]; mice infected with H1N1, Ribavirin 66 mg/kg once daily IP): no significant decrease in body weight

C[C@@H](O)[C@H]1C(=O)N2C(C(=O)O)=C(S[C@@H]3CN[C@H](C(=O)N(C)C)C3)[C@H](C)[C@H]12 [Meropenem]
Mean Log10CFU/g Bladder change (wrt 4 h PI control: 6.54 Log10CFU/g Bladder) [2, 6]: −1.11 Log10CFU/g | Mean Log10CFU/g kidney change (wrt 4 h PI control: 4.73 Log10CFU/g kidneys) [2, 6]: −1.27 Log10CFU/g | Mean ± SD (Log10 CFU/g Bladder) [2, 6]: 5.43 ± 0.36 Log10 CFU/g Bladder | Mean ± SD (Log10 CFU/g kidneys) [2, 6]: 3.46 ± 0.19 Log10 CFU/g kidneys | Log10 CFU/g Bladder [2, 7]: 5.04 Log10 CFU/g and 5.24 Log10 CFU/g and 5.91 Log10 CFU/g and 5.25 Log10 CFU/g and 5.71 Log10 CFU/g | Log 10 CFU/g Kidneys Left kidney [2, 7]: 3.46 Log 10 CFU/g (2×) and 3.61 Log 10 CFU/g and 3.41 Log 10 CFU/g and 3.37 Log 10 CFU/g | Log 10 CFU/g Kidneys Right kidney [2, 7]: 3.36 Log 10 CFU/g and 3.69 Log 10 CFU/g and 3.80 Log 10 CFU/g and 3.16 Log 10 CFU/g and 3.31 Log 10 CFU/g | antibacterial activity in kidneys compared to vehicle control [2, 8]: significant bactericidal activity in kidneys | antibacterial activity in the bladder compared to vehicle control [2, 8]: significant bactericidal activity in the bladder | Clinical signs [3]: N | bactericidal activity in vaginal load compared to vehicle control [4]: significant bactericidal activity in vaginal load

Saframycin
bacterial load on day 4 compared to day 1 ([5]; E1, CE3 100 μl (19.15 mg/ml) topical 3 days, Saframycin 30 mg topical b.i.d 3 days): did not show significant efficacy on day 4 when compared to day 1 | % wound contraction on Day 4 PI (Mean ± SD) ([5]; E1, CE3 100 μl (19.15 mg/ml) topical 3 days, Safromycin 30 mg topical b.i.d 3 days): 2.48 ± 0.30% | wound reduction on day 4 compared to vehicle control ([5]; E1, CE3 100 μl (19.15 mg/ml) topical 3 days, Safromycin 30 mg topical b.i.d 3 days, p<0.05): significant reduction wound on day 4 | Bacterial Load on skin post treatment Day 1 PI ([5]; Mean ± SD, E1, CE3 100 μl (19.15 mg/ml) topical u.i.d 3 days, Safromycin 30 mg topical b.i.d 3 days, Day 1 PI): 5.84 ± 0.35 Logic CFU/Swab | Bacterial Load on skin post treatment Day 4 PI ([5]; Mean ± SD, E1, CE3 100 μl (19.15 mg/ml) topical u.i.d 3 days, Safromycin 30 mg topical b.i.d 3 days, Day 4 PI): 4.87 ± 0.63 Logic CFU/Swab
